Test results reported in patent US20260070945A1, “MACROCYCLIC IMMUNOMODULATORS” (Bristol-Myers Squibb Company, priority 2022, published 2026).
*1 amine or outer side, *2 acyl side, *3 side chain or, on linkers, in order; H or OH if unused. Where a SMILES comes first, the peptide text is derived from it. Bridges are numbered along the chain shown (N, C = ends). [ ]: non-standard residue; d: D form. The star is where a group is joined. ξ: configuration not given here. Phe(3-CF3) = N[C@@H](Cc1cccc(C(F)(F)F)c1)C(=O)O; Phe(4-COOH) = N[C@@H](Cc1ccc(C(=O)O)cc1)C(=O)O; Bip = N[C@@H](Cc1ccc(-c2ccccc2)cc1)C(=O)O; Phe(3-Me) = Cc1cccc(C[C@H](N)C(=O)O)c1; γGlu = O=C(O)[C@H](CCC(=O)[*:2])N[*:1]; NH(CH2)12COOH = O=C(O)CCCCCCCCCCCCN*; Val(3-OH) = CC(C)(O)[C@H](N)C(=O)O; 4Pal = N[C@@H](Cc1ccncc1)C(=O)O; 3Thi = N[C@@H](Cc1ccsc1)C(=O)O; Aad = N[C@@H](CCCC(=O)O)C(=O)O; Cha = N[C@@H](CC1CCCCC1)C(=O)O; Cit = NC(=O)NCCC[C@H](N)C(=O)O; Thr(3ξ) = CC(O)[C@H](N)C(=O)O; 12Ado = NCCCCCCCCCCCC(=O)O; Carboxymethyl = O=C(O)C*; NMeA = CN[C@@H](C)C(=O)O; Orn = NCCC[C@H](N)C(=O)O; Aun = NCCCCCCCCCCC(=O)O; Dab = NCC[C@H](N)C(=O)O; Dap = NC[C@H](N)C(=O)O; AEEA = NCCOCCOCC(=O)O

Each compound was assayed against T1, PD-1/PD-L1 interaction (PE-labeled human PD-L1-Ig binding to Jurkat cell line over-expressing human PD-1) (Homo sapiens, UniProt Q15116) (assay: Jurkat-PD-1 Cell Binding High-Content Screening Assay (CBA)). Details: Jurkat-hPD-1 cells, PE-labeled PD-L1-Ig 20 nM final; read-out: Jurkat HPD1 PDL1 IC50.
T1 construct: expressed in transfected cells; host or cells: Jurkat
Experimental: Example 2: Jurkat-PD-1 Cell Binding High-Content Screening Assay (CBA)
Phycoerythrin (PE) was covalently linked to the Ig epitope tag of human PD-L1-Ig and fluorescently-labeled PD-L1-Ig was used for binding studies with a Jurkat cell line over-expressing human PD-1 (Jurkat-PD-1). Briefly, 8×10^3 Jurkat-hPD-1 cells were seeded into 384 well plates in 20 μl of DMEM supplemented with 10% fetal calf serum. 100 nl of compound was added to cells followed by incubation at 37° C. for 2 hours. Then, 5 μl of PE-labeled PD-L1-Ig (20 nM final), diluted in DMEM supplemented with 10% fetal calf serum. After 1 hour incubation, cells were fixed with […] in dPBS containing 10 μg/ml Hoechst 33342 and then washed 3× in 100 μl dPBS. Data was collected and processed using a Cell Insight NXT High Content Imager and associated software.

T1 sequence (Q15116 25-288): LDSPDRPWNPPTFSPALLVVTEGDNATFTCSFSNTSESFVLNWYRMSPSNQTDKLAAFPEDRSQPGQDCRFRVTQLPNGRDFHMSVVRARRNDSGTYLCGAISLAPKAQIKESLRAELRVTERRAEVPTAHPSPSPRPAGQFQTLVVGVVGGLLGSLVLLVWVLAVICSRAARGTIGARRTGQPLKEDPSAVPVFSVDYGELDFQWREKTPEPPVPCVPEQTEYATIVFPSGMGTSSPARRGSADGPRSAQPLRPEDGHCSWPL

| IC50 | SMILES |
| --- | --- |
| 0.108 µM | CC(C)C[C@H]1NC(=O)[C@H](C)N(C)C(=O)[C@H](CCCNC(N)=O)NC(=O)[C@H](Cc2ccc(-c3ccccc3)cc2)NC(=O)[C@H](Cc2ccc(C(=O)O)cc2)NC(=O)[C@H](Cc2cccc(C(F)(F)F)c2)NC(=O)[C@H](CC(=O)O)NC(=O)[C@H](Cc2ccc(OCC(=O)O)cc2)NC(=O)[C@H](Cc2ccc(C(=O)O)cc2)NC(=O)CSC[C@@H](C(=O)N[C@@H](CCN)C(=O)NCCOCCOCC(=O)N[C@@H](CCC(=O)NCCOCCOCC(=O)NCCCCCCCCCCCCC(=O)O)C(=O)O)NC(=O)[C@H](CC(=O)O)NC(=O)[C@H](C(C)(C)O)NC(=O)[C@H](CC2CCCCC2)NC(=O)[C@H](CCN)NC1=O [Example 1186] ({CH2CO}-[Phe(4-COOH)]Y(Carboxymethyl)D[Phe(3-CF3)][Phe(4-COOH)][Bip][Cit][NMeA][dL][Dab][Cha][Val(3-OH)]DC[Dab][AEEA][γGlu][AEEA]-{NH(CH2)12COOH}; thioether N-14) |
| 0.0511 µM | Cc1cccc(C[C@@H]2NC(=O)[C@H](CC(=O)O)NC(=O)[C@H](Cc3ccc(C(=O)O)cc3)NC(=O)[C@H](Cc3ccncc3)NC(=O)CSC[C@@H](C(=O)N[C@@H](CCN)C(=O)NCCOCCOCC(=O)NCCCCCCCCCCC(=O)O)NC(=O)[C@H](CCCN)NC(=O)[C@H](C(C)C)NC(=O)[C@H](CC3CCCCC3)NC(=O)[C@H](CCN)NC(=O)[C@@H](CC(C)C)NC(=O)[C@H](C)N(C)C(=O)[C@H](CCCNC(N)=O)NC(=O)[C@H](Cc3ccc(-c4ccccc4)cc3)NC(=O)[C@H](Cc3ccc(OCC(=O)O)cc3)NC2=O)c1 [Example 1406] ({CH2CO}-[4Pal][Phe(4-COOH)]D[Phe(3-Me)]Y(Carboxymethyl)[Bip][Cit][NMeA][dL][Dab][Cha]V[Orn]C[Dab][AEEA][Aun]-OH; thioether N-14) |
| 0.0163 µM | Cc1cccc(C[C@@H]2NC(=O)[C@H](CC(=O)O)NC(=O)[C@H](Cc3ccc(C(=O)O)cc3)NC(=O)[C@H](Cc3ccc(OCC(=O)O)cc3)NC(=O)CSC[C@@H](C(=O)N[C@@H](CCN)C(=O)NCCCCCCCCCCC(=O)O)NC(=O)[C@H](CCCC(=O)O)NC(=O)[C@H](C(C)C)NC(=O)[C@H](CC3CCCCC3)NC(=O)[C@H](CCN)NC(=O)[C@@H](CC(C)C)NC(=O)[C@H](C)N(C)C(=O)[C@H](C(C)C)NC(=O)[C@H](Cc3ccc(-c4ccccc4)cc3)NC(=O)[C@H](C(C)C)NC2=O)c1 [Example 2214] ({CH2CO}-Y(Carboxymethyl)[Phe(4-COOH)]D[Phe(3-Me)]V[Bip]V[NMeA][dL][Dab][Cha]V[Aad]C[Dab][Aun]-OH; thioether N-14) |
| 0.0671 µM | Cc1cccc(C[C@@H]2NC(=O)[C@H](CC(=O)O)NC(=O)[C@H](Cc3ccc(C(=O)O)cc3)NC(=O)[C@H](Cc3ccc(OCC(=O)O)cc3)NC(=O)CSC[C@@H](C(=O)NCCOCCOCC(=O)NCCCCCCCCCCCC(=O)O)NC(=O)[C@H](CCCCN)NC(=O)[C@H](C(C)C)NC(=O)[C@H](CC3CCCCC3)NC(=O)[C@H](Cc3cnc[nH]3)NC(=O)[C@@H](CC(C)C)NC(=O)[C@H](C)N(C)C(=O)[C@H](CCCNC(N)=O)NC(=O)[C@H](Cc3ccc(-c4ccccc4)cc3)NC(=O)[C@H](C(C)C)NC2=O)c1 [Example 2367] ({CH2CO}-Y(Carboxymethyl)[Phe(4-COOH)]D[Phe(3-Me)]V[Bip][Cit][NMeA][dL]H[Cha]VKC[AEEA][12Ado]-OH; thioether N-14) |
| 0.0033 µM | Cc1cccc(C[C@@H]2NC(=O)[C@H](CC(=O)O)NC(=O)[C@H](Cc3ccc(C(=O)O)cc3)NC(=O)[C@H](Cc3ccc(OCC(=O)O)cc3)NC(=O)CSC[C@@H](C(=O)NCCOCCOCC(=O)NCCCCCCCCCCC(=O)O)NC(=O)[C@H](CCCCN)NC(=O)[C@H](C(C)C)NC(=O)[C@H](CC3CCCCC3)NC(=O)[C@H](CCN)NC(=O)[C@@H](CC(C)C)NC(=O)[C@H](C)N(C)C(=O)[C@H](C(C)C)NC(=O)[C@H](Cc3ccc(-c4ccccc4)cc3)NC(=O)[C@H](CC(C)C)NC2=O)c1 [Example 2231] ({CH2CO}-Y(Carboxymethyl)[Phe(4-COOH)]D[Phe(3-Me)]L[Bip]V[NMeA][dL][Dab][Cha]VKC[AEEA][Aun]-OH; thioether N-14) |
| 0.0097 µM | CC(C)C[C@@H]1NC(=O)[C@H](Cc2c[nH]c3ccccc23)NC(=O)[C@H](CC(=O)O)NC(=O)[C@H](Cc2ccc(C(=O)O)cc2)NC(=O)[C@H](Cc2ccc(OCC(=O)O)cc2)NC(=O)CSC[C@@H](C(=O)N[C@@H](CCN)C(=O)NCCOCCOCC(=O)NCCCCCCCCCCC(=O)O)NC(=O)[C@H](CO)NC(=O)[C@H](C(C)(C)O)NC(=O)[C@H](CC2CCCCC2)NC(=O)[C@H](CCN)NC(=O)[C@@H](CC(C)C)NC(=O)[C@H](C)N(C)C(=O)[C@H](C(C)C)NC(=O)[C@H](Cc2ccc(-c3ccccc3)cc2)NC1=O [Example 1411] ({CH2CO}-Y(Carboxymethyl)[Phe(4-COOH)]DWL[Bip]V[NMeA][dL][Dab][Cha][Val(3-OH)]SC[Dab][AEEA][Aun]-OH; thioether N-14) |
| 0.017 µM | CC(C)C[C@H]1NC(=O)[C@H](C)N(C)C(=O)[C@H](C(C)C)NC(=O)[C@H](Cc2ccc(-c3ccccc3)cc2)NC(=O)[C@H](C(C)C)NC(=O)[C@H](Cc2c[nH]c3ccccc23)NC(=O)[C@H](CC(=O)O)NC(=O)[C@H](Cc2ccc(OCC(=O)O)cc2)NC(=O)[C@H](CN)NC(=O)CSC[C@@H](C(=O)NCCOCCOCC(=O)N[C@@H](CN)C(=O)NCCCCCCCCCCC(=O)O)NC(=O)[C@H](C(C)O)NC(=O)[C@H](C(C)C)NC(=O)[C@H](CC2CCCCC2)NC(=O)[C@H](CCN)NC1=O (stereo partly drawn) [Example 2099] ({CH2CO}-[Dap]Y(Carboxymethyl)DWV[Bip]V[NMeA][dL][Dab][Cha]V[Thr(3ξ)]C[AEEA][Dap][Aun]-OH; thioether N-14) |
| 0.0132 µM | CC(C)C[C@@H]1NC(=O)[C@H](Cc2c[nH]c3ccccc23)NC(=O)[C@H](CC(=O)O)NC(=O)[C@H](Cc2ccncc2)NC(=O)[C@H](Cc2ccc(OCC(=O)O)cc2)NC(=O)CSC[C@@H](C(=O)N[C@@H](CCCN)C(=O)NCCOCCOCC(=O)NCCCCCCCCCCCC(=O)O)NC(=O)[C@H](CO)NC(=O)[C@H](C(C)C)NC(=O)[C@H](CC2CCCCC2)NC(=O)[C@H](CCN)NC(=O)[C@@H](CC(C)C)NC(=O)[C@H](C)N(C)C(=O)[C@H](C(C)C)NC(=O)[C@H](Cc2ccc(-c3ccccc3)cc2)NC1=O [Example 2141] ({CH2CO}-Y(Carboxymethyl)[4Pal]DWL[Bip]V[NMeA][dL][Dab][Cha]VSC[Orn][AEEA][12Ado]-OH; thioether N-14) |

Same assay, conditions: PE-labeled PD-L1-Ig 20 nM final, Jurkat-hPD-1 cells; read-out: Jurkat HPD1 PDL1 IC50

| IC50 | SMILES |
| --- | --- |
| 0.0171 µM | Cc1cccc(C[C@@H]2NC(=O)[C@H](CC(=O)O)NC(=O)[C@H](Cc3ccc(OCC(=O)O)cc3)NC(=O)[C@H](C(C)O)NC(=O)CSC[C@@H](C(=O)N[C@@H](CCN)C(=O)NCCOCCOCC(=O)NCCOCCOCC(=O)NCCCCCCCCCCC(=O)O)NC(=O)[C@H](CCC(=O)O)NC(=O)[C@H](C(C)(C)O)NC(=O)[C@H](CC3CCCCC3)NC(=O)[C@H](CCN)NC(=O)[C@@H](CC(C)C)NC(=O)[C@H](C)N(C)C(=O)[C@H](Cc3ccc(C(=O)O)cc3)NC(=O)[C@H](Cc3ccc(-c4ccccc4)cc3)NC(=O)[C@H](Cc3ccc(C(=O)O)cc3)NC2=O)c1 (stereo partly drawn) [Example 2537] ({CH2CO}-[Thr(3ξ)]Y(Carboxymethyl)D[Phe(3-Me)][Phe(4-COOH)][Bip][Phe(4-COOH)][NMeA][dL][Dab][Cha][Val(3-OH)]EC[Dab][AEEA][AEEA][Aun]-OH; thioether N-14) |
| 0.0451 µM | CC(=O)NCCCC[C@@H]1NC(=O)[C@H](C(C)(C)O)NC(=O)[C@H](CC2CCCCC2)NC(=O)[C@H](CCN)NC(=O)[C@@H](CC(C)C)NC(=O)[C@H](C)N(C)C(=O)[C@H](CCC(N)=O)NC(=O)[C@H](Cc2ccc(-c3ccccc3)cc2)NC(=O)[C@H](CC(C)C)NC(=O)[C@H](Cc2c[nH]c3ccccc23)NC(=O)[C@H](CC(=O)O)NC(=O)[C@H](Cc2ccc(C(=O)O)cc2)NC(=O)[C@H](Cc2ccc(OCC(=O)O)cc2)NC(=O)CSC[C@@H](C(=O)NCCOCCOCC(=O)NCCCCCCCCCCC(=O)O)NC1=O [Example 2459] ({CH2CO}-Y(Carboxymethyl)[Phe(4-COOH)]DWL[Bip]Q[NMeA][dL][Dab][Cha][Val(3-OH)]K(Ac)C[AEEA][Aun]-OH; thioether N-14) |
| 0.0103 µM | Cc1cccc(C[C@@H]2NC(=O)[C@H](CC(=O)O)NC(=O)[C@H](Cc3ccc(C(=O)O)cc3)NC(=O)[C@H](Cc3ccsc3)NC(=O)CSC[C@@H](C(=O)N[C@@H](CCN)C(=O)NCCOCCOCC(=O)NCCCCCCCCCCC(=O)O)NC(=O)[C@H](CCC(=O)O)NC(=O)[C@H](C(C)(C)O)NC(=O)[C@H](CC3CCCCC3)NC(=O)[C@H](CCN)NC(=O)[C@@H](CC(C)C)NC(=O)[C@H](C)N(C)C(=O)[C@H](Cc3ccc(C(=O)O)cc3)NC(=O)[C@H](Cc3ccc(-c4ccccc4)cc3)NC(=O)[C@H](Cc3ccc(C(=O)O)cc3)NC2=O)c1 [Example 2506] ({CH2CO}-[3Thi][Phe(4-COOH)]D[Phe(3-Me)][Phe(4-COOH)][Bip][Phe(4-COOH)][NMeA][dL][Dab][Cha][Val(3-OH)]EC[Dab][AEEA][Aun]-OH; thioether N-14) |
| 0.0026 µM | CC(=O)NCCCC[C@@H]1NC(=O)[C@H](C(C)(C)O)NC(=O)[C@H](CC2CCCCC2)NC(=O)[C@H](CCN)NC(=O)[C@@H](CC(C)C)NC(=O)[C@H](C)N(C)C(=O)[C@H](CCC(N)=O)NC(=O)[C@H](Cc2ccc(-c3ccccc3)cc2)NC(=O)[C@H](Cc2ccc(C(=O)O)cc2)NC(=O)[C@H](Cc2cccc(C(F)(F)F)c2)NC(=O)[C@H](CC(=O)O)NC(=O)[C@H](Cc2ccc(OCC(=O)O)cc2)NC(=O)[C@H](Cc2ccc(OCC(=O)O)cc2)NC(=O)CSC[C@@H](C(=O)N[C@@H](CCN)C(=O)NCCOCCOCC(=O)NCCCCCCCCCCC(=O)O)NC1=O [Example 2579] ({CH2CO}-Y(Carboxymethyl)Y(Carboxymethyl)D[Phe(3-CF3)][Phe(4-COOH)][Bip]Q[NMeA][dL][Dab][Cha][Val(3-OH)]K(Ac)C[Dab][AEEA][Aun]-OH; thioether N-14) |
